{"source": "patent US20180092845A1", "about": "“ENZYME-RESPONSIVE NANOPARTICLES” (THE REGENTS OF THE UNIVERSITY OF CALIFORNIA, priority 2015, published 2018)", "key": {"[1]": {"experiment": "in vivo", "conditions": "female, nu/nu, mouse, in vivo, iv", "protocol": "(§1) Mouse weight was recorded once daily until all animals in the cohort returned to, or surpassed, their weight on the day of injection. […] Two additional cohorts (6 mice, 3 per group) were treated with 15 mg/kg and 30 mg/kg of clinically formulated paclitaxel (a 6 mg/mL suspension in 1:1 ethanol:Cremophor EL®, diluted with 1×DPBS prior to injection)."}, "[2]": {"test_system": "healthy nu/nu mice", "experiment": "in vivo", "conditions": "30 mg/kg IV; listed as clinically formulated paclitaxel", "protocol": "as §1"}, "[3]": {"test_system": "healthy nu/nu mice", "conditions": "suspension in 1:1 Cremophor EL to ethanol; literature; cited from earlier work"}}}
{"compound": "CC(=O)O[C@H]1C(=O)[C@@]2(C)[C@H]([C@H](OC(=O)c3ccccc3)[C@]3(O)C[C@H](OC(=O)[C@H](O)[C@@H](NC(=O)c4ccccc4)c4ccccc4)C(C)=C1C3(C)C)[C@]1(OC(C)=O)CO[C@@H]1C[C@@H]2O", "note": "[PTX, paclitaxel]", "values": [{"measurement": "LD50", "setting": "[1]", "value": 30, "unit": "mg/kg"}, {"measurement": "MTD", "setting": "[1]", "value": 15, "unit": "mg/kg"}, {"measurement": "lethality", "setting": "[2]", "value": "1 out of the 3 animals died within 30 minutes post-injection and also died within an hour of injection"}, {"measurement": "MTD in mice previously established", "setting": "[3]", "value": "10 to 30", "unit": "mg/kg"}]}
